Test results taken from US20260262643A1, “HERBICIDAL BENZOXAZINES” (FMC CORPORATION, priority 2022, published 2026).

How the values were obtained:
kochia [1] = assay: Test C postemergence; format: in vivo, Bassia scoparia; details: 10 days, 0 to 100 scale (0 no effect, 100 complete control)
Summary of the method: (§1)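 Test material, in non-phytotoxic solvent with surfactant, was sprayed on the soil directly after seeding (preemergence) or on young plants of 2–10 cm with one to two leaves (postemergence). Greenhouse, 10 days; 0–100 visual control scale.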

ducksalad = assay: Test D flooded paddy test; format: in vivo, Heteranthera limosa; details: 250 g ai/ha, applied to paddy water, visual rating after 13 to 14 days, scale 0 to 100 (0 no effect, 100 complete control)
Summary of the method: (§2)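 Seedlings reached the 2-leaf stage, then pots were flooded to 3 cm over the soil surface. Compound was applied into the water, depth was maintained, and plants stayed in the greenhouse 13 to 14 days before visual scoring (0–100) relative to controls.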

ryegrass, Italian [2] = assay: Test C preemergence; format: in vivo, Lolium multiflorum
Summary of the method: as §1

barnyardgrass [3] = assay: Test C preemergence; format: in vivo, Echinochloa crusgalli
Summary of the method: as §1

blackgrass [4] = assay: Test C postemergence; format: in vivo, Alopecurus myosuroides; details: 10 days, 0 to 100 scale (0 no effect, 100 complete control)
Summary of the method: as §1

corn [5] = assay: Test C postemergence; format: in vivo, Zea mays; details: 10 days, 0 to 100 scale (0 no effect, 100 complete control)
Summary of the method: as §1

pigweed, palmer [6] = assay: Test C preemergence; format: in vivo, Amaranthus palmeri
Summary of the method: as §1

wheat [7] = assay: Test C postemergence; format: in vivo, Triticum aestivum; details: 10 days, 0 to 100 scale (0 no effect, 100 complete control)
Summary of the method: as §1

wheat [8] = assay: Test C preemergence; format: in vivo, Triticum aestivum
Summary of the method: as §1

oat, wild [9] = assay: Test C preemergence; format: in vivo, Avena fatua
Summary of the method: as §1

soybean [10] = assay: Test C preemergence; format: in vivo, Glycine max
Summary of the method: as §1

corn [11] = assay: Test C preemergence; format: in vivo, Zea mays
Summary of the method: as §1

ragweed [12] = assay: Test C postemergence; format: in vivo, Ambrosia artemisiifolia; details: 10 days, 0 to 100 scale (0 no effect, 100 complete control)
Summary of the method: as §1

barnyardgrass [13] = assay: Test C postemergence; format: in vivo, Echinochloa crusgalli; details: 10 days, 0 to 100 scale (0 no effect, 100 complete control)
Summary of the method: as §1

galium = assay: Test C postemergence; format: in vivo, Galium aparine; details: 10 days, 0 to 100 scale (0 no effect, 100 complete control)
Summary of the method: as §1

soybean [14] = assay: Test C postemergence; format: in vivo, Glycine max; details: 10 days, 0 to 100 scale (0 no effect, 100 complete control)
Summary of the method: as §1

kochia [15] = assay: Test C preemergence; format: in vivo, Bassia scoparia
Summary of the method: as §1

blackgrass [16] = assay: Test C preemergence; format: in vivo, Alopecurus myosuroides
Summary of the method: as §1

sedge, umbrella = assay: Test D flooded paddy test; format: in vivo, Cyperus difformis; details: 250 g ai/ha, applied to paddy water, visual rating after 13 to 14 days, scale 0 to 100 (0 no effect, 100 complete control)
Summary of the method: as §2

ryegrass, Italian [17] = assay: Test C postemergence; format: in vivo, Lolium multiflorum; details: 10 days, 0 to 100 scale (0 no effect, 100 complete control)
Summary of the method: as §1

ragweed [18] = assay: Test C preemergence; format: in vivo, Ambrosia artemisiifolia
Summary of the method: as §1

pigweed, palmer [19] = assay: Test C postemergence; format: in vivo, Amaranthus palmeri; details: 10 days, 0 to 100 scale (0 no effect, 100 complete control)
Summary of the method: as §1

green foxtail [20] = assay: Test C preemergence; format: in vivo, Setaria viridis
Summary of the method: as §1

oat, wild [21] = assay: Test C postemergence; format: in vivo, Avena fatua; details: 10 days, 0 to 100 scale (0 no effect, 100 complete control)
Summary of the method: as §1

green foxtail [22] = assay: Test C postemergence; format: in vivo, Setaria viridis; details: 10 days, 0 to 100 scale (0 no effect, 100 complete control)
Summary of the method: as §1

barnyardgrass [23] = assay: Test D flooded paddy test; format: in vivo, Echinochloa crus-galli; details: 250 g ai/ha, applied to paddy water, visual rating after 13 to 14 days, scale 0 to 100 (0 no effect, 100 complete control)
Summary of the method: as §2

rice = assay: Test D flooded paddy test; format: in vivo, Oryza sativa; details: 250 g ai/ha, applied to paddy water, visual rating after 13 to 14 days, scale 0 to 100 (0 no effect, 100 complete control)
Summary of the method: as §2

horseweed = assay: Test C postemergence; format: in vivo, Erigeron canadensis; details: 10 days, 0 to 100 scale (0 no effect, 100 complete control)
Summary of the method: as §1

[24] = 500 g ai/ha, preemergence, 0 to 100 scale (0 no effect, 100 complete control)
[25] = Preemergence, 125 g ai/ha, 0 to 100 scale, 0 no effect, 100 complete control

CCOCC1CN(C(=O)c2cc(-n3cnc(CC)n3)ccc2OC)c2cccc(Cl)c2O1 (stereo not shown) [Compound 378]
Plant response rating, Kochia (kochia [1]; 500 g ai/ha, postemergence): 100 | Plant response rating, Kochia (kochia [1]; Postemergence, 125 g ai/ha): 90 | Plant response rating, Ducksalad (Flood) (ducksalad): 0 | Ryegrass, Italian plant response rating (ryegrass, Italian [2]; [24]): 90 | Plant response rating, Ryegrass, Italian (ryegrass, Italian [2]; [25]): 60 | Barnyardgrass plant response rating (barnyardgrass [3]; [24]): 100 | Plant response rating, Barnyardgrass (barnyardgrass [3]; [25]): 80 | Plant response rating, Blackgrass (blackgrass [4]; 500 g ai/ha, postemergence): 50 | Plant response rating, Blackgrass (blackgrass [4]; Postemergence, 125 g ai/ha): 30 | Plant response rating, Corn (corn [5]; 500 g ai/ha, postemergence): 80 | Plant response rating, Corn (corn [5]; Postemergence, 125 g ai/ha): 20 | Pigweed, Palmer plant response rating (pigweed, palmer [6]; [24]): 100 | Plant response rating, Pigweed, Palmer (pigweed, palmer [6]; [25]): 100 | Plant response rating, Wheat (wheat [7]; 500 g ai/ha, postemergence): 40 | Plant response rating, Wheat (wheat [7]; Postemergence, 125 g ai/ha): 30 | Wheat plant response rating (wheat [8]; [24]): 30 | Plant response rating, Wheat (wheat [8]; [25]): 10 | Oat, Wild plant response rating (oat, wild [9]; [24]): 60 | Plant response rating, Oat, Wild (oat, wild [9]; [25]): 20 | Soybean plant response rating (soybean [10]; [24]): 90 | Plant response rating, Soybean (soybean [10]; [25]): 60 | Corn plant response rating (corn [11]; [24]): 50 | Plant response rating, Corn (corn [11]; [25]): 0 | Plant response rating, Ragweed (ragweed [12]; 500 g ai/ha, postemergence): 90 | Plant response rating, Ragweed (ragweed [12]; Postemergence, 125 g ai/ha): 70 | Plant response rating, Barnyardgrass (barnyardgrass [13]; 500 g ai/ha, postemergence): 80 | Plant response rating, Barnyardgrass (barnyardgrass [13]; Postemergence, 125 g ai/ha): 40 | Plant response rating, Galium (galium; 500 g ai/ha, postemergence): 100 | Plant response rating, Galium (galium; Postemergence, 125 g ai/ha): 90 | Plant response rating, Soybean (soybean [14]; 500 g ai/ha, postemergence): 100 | Plant response rating, Soybean (soybean [14]; Postemergence, 125 g ai/ha): 100 | Kochia plant response rating (kochia [15]; [24]): 100 | Plant response rating, Kochia (kochia [15]; [25]): 100 | Blackgrass plant response rating (blackgrass [16]; [24]): 50 | Plant response rating, Blackgrass (blackgrass [16]; [25]): 10 | Plant response rating, Sedge, Umbrella (Flood) (sedge, umbrella): 0 | Plant response rating, Ryegrass, Italian (ryegrass, Italian [17]; 500 g ai/ha, postemergence): 60 | Plant response rating, Ryegrass, Italian (ryegrass, Italian [17]; Postemergence, 125 g ai/ha): 20 | Ragweed plant response rating (ragweed [18]; [24]): 80 | Plant response rating, Ragweed (ragweed [18]; [25]): 60 | Plant response rating, Pigweed, Palmer (pigweed, palmer [19]; 500 g ai/ha, postemergence): 100 | Plant response rating, Pigweed, Palmer (pigweed, palmer [19]; Postemergence, 125 g ai/ha): 90 | Foxtail, Green plant response rating (green foxtail [20]; [24]): 100 | Plant response rating, Foxtail, Green (green foxtail [20]; [25]): 90 | Plant response rating, Oat, Wild (oat, wild [21]; 500 g ai/ha, postemergence): 30 | Plant response rating, Oat, Wild (oat, wild [21]; Postemergence, 125 g ai/ha): 0 | Plant response rating, Foxtail, Green (green foxtail [22]; 500 g ai/ha, postemergence): 90 | Plant response rating, Foxtail, Green (green foxtail [22]; Postemergence, 125 g ai/ha): 70 | Plant response rating, Barnyardgrass (Flood) (barnyardgrass [23]): 0 | Plant response rating, Rice (Flood) (rice): 0 | Plant response rating, Horseweed (horseweed; 500 g ai/ha, postemergence): 70 | Plant response rating, Horseweed (horseweed; Postemergence, 125 g ai/ha): 10
